From patent publication US20220056043A1, “NITROGEN-CONTAINING FUSED CYCLIC COMPOUND, PREPARATION METHOD THEREFOR AND USE THEREOF” (SICHUAN KELUN-BIOTECH BIOPHARMACEUTICAL CO., LTD., priority 2019, published 2022)

Experiments:
CYP1A2 = target: T1, CYP1A2 (Homo sapiens, UniProt P05177); assay: CYP enzyme inhibition test, P450-Glo CYP1A2 Screening System; assay type: in vitro ADME; settings: for inhibitory effect on CYP1A2: conclusion in words
T1 construct: purchased
T1 sequence (P05177 1-516): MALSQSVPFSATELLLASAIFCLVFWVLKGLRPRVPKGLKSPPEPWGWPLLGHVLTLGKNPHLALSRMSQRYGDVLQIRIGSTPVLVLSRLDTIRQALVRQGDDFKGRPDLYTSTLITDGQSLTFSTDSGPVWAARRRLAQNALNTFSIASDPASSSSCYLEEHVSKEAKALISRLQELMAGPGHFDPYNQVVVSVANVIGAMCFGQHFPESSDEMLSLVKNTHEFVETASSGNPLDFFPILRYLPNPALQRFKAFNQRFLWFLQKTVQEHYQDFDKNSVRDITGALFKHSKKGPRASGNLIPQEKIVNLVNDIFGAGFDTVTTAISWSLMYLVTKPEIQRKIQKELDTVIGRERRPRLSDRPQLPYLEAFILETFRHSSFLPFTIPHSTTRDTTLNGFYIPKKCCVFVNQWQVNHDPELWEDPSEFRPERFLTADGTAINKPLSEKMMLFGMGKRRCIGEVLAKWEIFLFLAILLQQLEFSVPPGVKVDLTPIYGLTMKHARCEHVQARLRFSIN
Procedure: (§1) Experimental Example 6: CYP Enzyme Inhibition Test CYP450 is the most important enzyme system in drug metabolism. The enzymes involved in metabolism interact with drugs, and the most important ones are CYP1A2, CYP2D6 and CYP3A4. P450-Glo™ CYP1A2 Screening System, Vivid® CYP2D6 Cyan Screening Kit and Vivid® CYP3A4 Red Screening Kit were used in this test, and the inhibitory effects of the compounds on CYP1A2, CYP2D6 and CYP3A4 were determined according to the instructions of the kit.

CYP2D6 = target: T2, CYP2D6 (Homo sapiens, UniProt P10635); assay: CYP enzyme inhibition test, Vivid CYP2D6 Cyan Screening Kit; assay type: in vitro ADME; settings: for inhibitory effect on CYP2D6: conclusion in words
T2 construct: purchased
Procedure: as §1

CYP3A4 = target: T3, CYP3A4 (Homo sapiens, UniProt P08684); assay: CYP enzyme inhibition test, Vivid CYP3A4 Red Screening Kit; assay type: in vitro ADME; settings: for inhibitory effect on CYP3A4: conclusion in words
T3 construct: purchased
Procedure: as §1

hERG potassium channel [1] = target: T4, hERG potassium channel (Homo sapiens, UniProt Q12809); assay: hERG test, Predictor hERG Fluorescence Polarization Assay Kit; assay type: binding; design: expressed in transfected cells; host or cells: HEK-293; settings: test concentrations 1 μM and 10 μM
Text: Experimental Example 5: hERG Test
1. Predictor™ hERG Fluorescence Polarization Assay Kit (ThermoFisher) was used to test the inhibitory effect of the compounds on hERG potassium channel according to the instructions of the kit.

hERG potassium channel [2] = target: T4, hERG potassium channel
hERG potassium channel [3] = target: T4, hERG potassium channel; assay: in vitro
hERG potassium channel [4] = target: T4, hERG potassium channel; assay: cell-based

T3 sequence (P08684 whole entry): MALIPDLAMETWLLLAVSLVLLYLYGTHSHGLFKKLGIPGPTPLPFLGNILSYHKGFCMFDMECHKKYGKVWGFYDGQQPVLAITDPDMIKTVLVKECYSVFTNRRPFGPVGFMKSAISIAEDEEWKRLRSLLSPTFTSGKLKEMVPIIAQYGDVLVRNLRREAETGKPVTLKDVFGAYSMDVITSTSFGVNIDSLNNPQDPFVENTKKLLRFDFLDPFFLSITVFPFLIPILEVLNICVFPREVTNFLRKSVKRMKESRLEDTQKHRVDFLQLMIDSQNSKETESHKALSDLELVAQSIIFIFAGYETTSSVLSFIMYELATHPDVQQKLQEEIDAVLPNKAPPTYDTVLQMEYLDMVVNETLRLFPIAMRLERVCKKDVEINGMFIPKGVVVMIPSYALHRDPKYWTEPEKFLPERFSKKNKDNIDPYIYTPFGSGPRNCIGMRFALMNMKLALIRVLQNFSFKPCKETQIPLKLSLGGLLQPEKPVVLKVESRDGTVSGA
T2 sequence (P10635 whole entry): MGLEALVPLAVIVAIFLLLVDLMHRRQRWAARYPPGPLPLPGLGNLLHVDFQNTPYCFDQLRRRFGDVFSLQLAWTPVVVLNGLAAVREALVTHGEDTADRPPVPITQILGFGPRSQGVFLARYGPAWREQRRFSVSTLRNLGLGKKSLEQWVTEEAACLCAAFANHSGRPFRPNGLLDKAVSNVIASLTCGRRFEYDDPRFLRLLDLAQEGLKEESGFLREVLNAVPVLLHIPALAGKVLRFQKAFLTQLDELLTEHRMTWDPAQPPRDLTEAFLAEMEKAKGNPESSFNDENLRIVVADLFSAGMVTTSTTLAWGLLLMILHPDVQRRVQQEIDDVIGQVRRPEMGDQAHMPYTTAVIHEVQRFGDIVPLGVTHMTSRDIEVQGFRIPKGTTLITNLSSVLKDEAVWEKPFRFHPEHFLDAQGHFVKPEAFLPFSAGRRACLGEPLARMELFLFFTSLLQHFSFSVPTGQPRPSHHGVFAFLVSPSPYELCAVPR
T4 sequence (Q12809 whole entry): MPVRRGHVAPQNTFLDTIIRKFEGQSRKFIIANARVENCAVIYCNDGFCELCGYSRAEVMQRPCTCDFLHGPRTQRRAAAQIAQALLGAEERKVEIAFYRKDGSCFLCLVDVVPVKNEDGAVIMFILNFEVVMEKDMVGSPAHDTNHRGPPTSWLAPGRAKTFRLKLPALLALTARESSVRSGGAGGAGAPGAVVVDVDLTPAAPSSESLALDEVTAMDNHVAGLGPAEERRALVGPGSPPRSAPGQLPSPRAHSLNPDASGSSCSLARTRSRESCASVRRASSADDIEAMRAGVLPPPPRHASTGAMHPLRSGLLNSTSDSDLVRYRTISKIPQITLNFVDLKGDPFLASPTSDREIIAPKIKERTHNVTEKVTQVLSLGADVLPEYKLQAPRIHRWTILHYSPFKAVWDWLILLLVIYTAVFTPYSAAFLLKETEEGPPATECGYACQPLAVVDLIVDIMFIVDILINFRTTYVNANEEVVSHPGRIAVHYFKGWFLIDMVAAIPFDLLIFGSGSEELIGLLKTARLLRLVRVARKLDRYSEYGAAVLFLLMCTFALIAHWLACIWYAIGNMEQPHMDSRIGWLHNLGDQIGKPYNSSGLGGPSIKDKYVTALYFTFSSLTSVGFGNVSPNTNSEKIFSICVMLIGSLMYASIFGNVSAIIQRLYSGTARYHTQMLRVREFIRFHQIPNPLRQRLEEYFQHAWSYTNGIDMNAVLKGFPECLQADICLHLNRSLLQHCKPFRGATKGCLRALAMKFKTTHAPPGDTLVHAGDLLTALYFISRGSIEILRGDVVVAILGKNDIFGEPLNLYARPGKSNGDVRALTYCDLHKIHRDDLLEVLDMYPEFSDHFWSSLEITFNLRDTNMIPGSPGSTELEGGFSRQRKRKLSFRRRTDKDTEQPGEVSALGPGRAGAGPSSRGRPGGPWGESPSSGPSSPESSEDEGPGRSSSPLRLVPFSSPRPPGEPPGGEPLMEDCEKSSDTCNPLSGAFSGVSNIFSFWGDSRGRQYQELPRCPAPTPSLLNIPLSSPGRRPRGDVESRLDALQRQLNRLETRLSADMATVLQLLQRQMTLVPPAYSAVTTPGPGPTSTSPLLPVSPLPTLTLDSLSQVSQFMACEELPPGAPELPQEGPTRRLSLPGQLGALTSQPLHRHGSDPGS

Row | SMILES | IC50 (CYP1A2) [µM] | inhibitory effect on CYP1A2 (CYP1A2) | IC50 (CYP2D6) [µM] | inhibitory effect on CYP2D6 (CYP2D6) | IC50 (CYP3A4) [µM] | inhibitory effect on CYP3A4 (CYP3A4) | IC50 (hERG potassium channel [1]) [µM] | inhibitory effect on hERG (hERG potassium channel [2]) | inhibition at 10 μM (hERG potassium channel [3]) [%] | IC50 (hERG potassium channel [4]) [µM]
1 | COC(C)(C)CNc1cc(N)nc2cc(-c3ccn[nH]3)sc12 [Compound 111, N^7-(2′-methoxy-2′-methylpropyl)-2-(1H-pyrazol-5-yl)thieno[3,2-b]pyridine-5,7-diamine] | > 10 | no apparent inhibitory effects | > 10 | no apparent inhibitory effects | > 10 | no apparent inhibitory effects | > 10 |  |  | 
2 | Nc1cc(NCC2CCOCC2)c2sc(-c3ccn[nH]3)cc2n1 [Compound 120, 2-(1H-pyrazol-5-yl)-N^7-((tetrahydro-2H-pyran-4-yl)methyl)thieno[3,2-b]pyridine-5,7-diamine] |  |  |  |  |  |  |  | no apparent inhibitory effect | 11.7 ± 0.7 | > 10
3 | Nc1cc(NC2COC2)c2sc(-c3ccn[nH]3)cc2n1 [Compound 112, N^7-(oxetan-3-yl)-2-(1H-pyrazol-5-yl)thieno[3,2-b]pyridine-5,7-diamine] | > 10 | no apparent inhibitory effects | > 10 | no apparent inhibitory effects | > 10 | no apparent inhibitory effects | > 10 |  |  | 
4 | Nc1cc(NC2CCC(O)CC2)c2sc(-c3ccn[nH]3)cc2n1 (centres unmarked) [Compound 114, 4-((5-amino-2-(1H-pyrazol-5-yl)thieno[3,2-b]pyridin-7-yl)amino)-1-cyclohexanol] | > 10 | no apparent inhibitory effects | > 10 | no apparent inhibitory effects | > 10 | no apparent inhibitory effects |  |  |  | 
5 | COCCNc1cc(N)nc2cc(-c3ccn[nH]3)sc12 [Compound 100, N^7-(2-methoxyethyl)-2-(1H-pyrazol-5-yl)thieno[3,2-b]pyridine-5,7-diamine] |  |  |  |  |  |  |  | no apparent inhibitory effect | 5.42 ± 2.2 | > 10
6 | CC(C)(CO)CNc1cc(N)nc2cc(-c3ccn[nH]3)sc12 [Compound 115, 3-((5-amino-2-(1H-pyrazol-5-yl)thieno[3,2-b]pyridin-7-yl)amino)-2,2-dimethyl-1-propanol] | > 10 | no apparent inhibitory effects | > 10 | no apparent inhibitory effects | > 10 | no apparent inhibitory effects |  | no apparent inhibitory effect | 8.26 ± 3.66 | > 10
7 | Nc1cc(N[C@@H]2CC[C@H](O)C2)c2sc(-c3ccn[nH]3)cc2n1 [Compound 31, (1S,3R)-3-((5-amino-2-(1H-pyrazol-5-yl)thieno[3,2-b]pyridin-7-yl)amino)cyclopentanol] | > 10 | no apparent inhibitory effects | > 10 | no apparent inhibitory effects | > 10 | no apparent inhibitory effects |  |  |  | 
8 | Nc1cc(NCC(F)F)c2sc(-c3ccn[nH]3)cc2n1 [Compound 116, N^7-(2,2-difluoroethyl)-2-(1H-pyrazol-5-yl)thieno[3,2-b]pyridine-5,7-diamine] |  |  |  |  |  |  |  | no apparent inhibitory effect | 18.5 ± 4.98 | > 10
